{"source": "paper PMC3401594", "about": "(International Journal of Pharmaceutics, 2009)", "key": {"[1]": {"target": "T1, recombinant human P-gp (Homo sapiens, UniProt P08183)", "T1 sequence (P08183 whole entry)": "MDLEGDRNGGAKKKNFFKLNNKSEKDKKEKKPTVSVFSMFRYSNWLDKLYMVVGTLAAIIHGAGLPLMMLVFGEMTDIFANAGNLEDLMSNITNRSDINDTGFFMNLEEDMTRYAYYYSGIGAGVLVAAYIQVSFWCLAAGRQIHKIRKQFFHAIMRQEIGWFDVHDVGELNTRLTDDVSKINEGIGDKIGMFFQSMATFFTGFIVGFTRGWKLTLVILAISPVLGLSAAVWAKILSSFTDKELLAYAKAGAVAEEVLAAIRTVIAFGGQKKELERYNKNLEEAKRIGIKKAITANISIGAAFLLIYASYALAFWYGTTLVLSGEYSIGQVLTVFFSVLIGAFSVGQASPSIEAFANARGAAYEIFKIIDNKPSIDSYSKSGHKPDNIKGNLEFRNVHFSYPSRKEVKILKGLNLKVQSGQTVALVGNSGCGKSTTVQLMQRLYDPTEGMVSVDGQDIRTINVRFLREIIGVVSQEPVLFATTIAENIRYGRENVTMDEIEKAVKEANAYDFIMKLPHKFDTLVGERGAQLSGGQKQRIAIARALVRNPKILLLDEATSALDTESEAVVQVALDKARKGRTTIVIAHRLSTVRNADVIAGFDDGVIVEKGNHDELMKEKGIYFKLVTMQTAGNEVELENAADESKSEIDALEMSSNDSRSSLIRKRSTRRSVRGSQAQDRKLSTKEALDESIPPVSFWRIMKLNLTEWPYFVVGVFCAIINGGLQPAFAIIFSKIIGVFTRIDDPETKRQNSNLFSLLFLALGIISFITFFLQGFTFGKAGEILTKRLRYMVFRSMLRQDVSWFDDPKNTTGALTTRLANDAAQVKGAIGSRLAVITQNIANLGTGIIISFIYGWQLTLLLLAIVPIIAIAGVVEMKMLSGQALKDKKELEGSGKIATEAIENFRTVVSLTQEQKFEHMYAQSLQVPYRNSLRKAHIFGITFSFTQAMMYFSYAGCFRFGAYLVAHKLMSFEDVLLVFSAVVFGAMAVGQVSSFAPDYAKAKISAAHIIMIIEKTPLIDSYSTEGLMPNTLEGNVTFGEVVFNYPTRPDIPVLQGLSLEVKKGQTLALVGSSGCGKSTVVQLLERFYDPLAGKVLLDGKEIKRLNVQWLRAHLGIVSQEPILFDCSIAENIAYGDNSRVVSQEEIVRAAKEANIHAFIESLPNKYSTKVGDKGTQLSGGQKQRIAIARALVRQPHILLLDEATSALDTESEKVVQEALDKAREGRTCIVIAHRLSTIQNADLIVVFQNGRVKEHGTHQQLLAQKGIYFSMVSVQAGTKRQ"}, "[2]": {"settings": "20 mg/kg, for 45 min in wild type mice; ref Thompson et al., 2000; cited from earlier work"}, "[3]": {"settings": "in vivo; cited from earlier work"}, "[4]": {"settings": "mouse, in vivo"}, "[5]": {"target": "μ receptor", "settings": "read-out: Ki at μ receptor, as determined by DEC, NIDA, ref DEC; cited from earlier work"}, "[6]": {"system": "P-gp (mdr1a/b) influence on antinociception", "parameters": "species or system mice", "settings": "mouse, in vivo; for Influence of P-gp ablation on antinociceptive activity: sc"}, "[7]": {"settings": "tail-flick, hotplate and paraphenylquinone assays; ref DEC, NIDA; cited from earlier work"}, "[8]": {"target": "T1, recombinant human P-gp", "settings": "cited from earlier work"}, "[9]": {"settings": "ref Casy and Parfitt, 1986; cited from earlier work"}}, "note": "Values joined by “and” are separate entries in the source; they are usually repeats but may differ in a detail not shown here. Equal values may be shown once. Read-outs that look alike come from different tables or passages of the source. Marks after values point to notes of the source that are not given here."}
{"smiles": "C=CCN1CC[C@]23c4c5ccc(O)c4O[C@H]2C(=O)CC[C@@]3(O)[C@H]1C5", "note": "[Naloxone]", "values": [{"measurement": "Fold stimulation of basal P-gp-ATPase activity", "setting": "[1]; human", "value": "1.25 ± 0.11", "unit": "fold"}, {"measurement": "Stimulation of P-gp ATPase activity (significance)", "setting": "[1]; human", "value": "did not significantly (p > 0.05) stimulate"}]}
{"smiles": "CN1CC[C@]23c4c5ccc(O)c4O[C@H]2[C@@H](O)C=C[C@H]3[C@H]1C5", "note": "[Morphine]", "values": [{"measurement": "%MPE reached", "setting": "[2]", "value": "~ 95 %MPE"}]}
{"smiles": "CN1CC[C@]23c4c5ccc(O)c4O[C@H]2C(=O)CC[C@@]3(O)[C@H]1C5", "note": "[Oxymorphone]", "values": [{"measurement": "P-gp affinity status from P-gp ATPase assay", "setting": "[1]", "value": "not to be P-gp substrates"}, {"measurement": "Fold stimulation of basal P-gp-ATPase activity", "setting": "[1]; human", "value": "1.12 ± 0.12", "unit": "fold"}, {"measurement": "Stimulation of P-gp ATPase activity (significance)", "setting": "[1]; human", "value": "did not significantly (p > 0.05) stimulate"}, {"measurement": "Potency relative to morphine (times as potent)", "setting": "[3]", "value": "approximately 10 times"}]}
{"smiles": "CN1CC[C@]23c4c5ccc(O)c4O[C@H]2CC=C[C@H]3[C@H]1C5", "note": "[6-Desoxymorphine]", "values": [{"measurement": "Signs of toxicity", "setting": "[4]", "value": "no apparent toxicity"}, {"measurement": "Ki", "setting": "[5]", "value": 2.9, "unit": "nM"}, {"measurement": "P-gp affinity status from P-gp ATPase assay", "setting": "[1]", "value": "not to be P-gp substrates"}, {"measurement": "Fold stimulation of basal P-gp-ATPase activity", "setting": "[1]; human", "value": "1.01 ± 0.11", "unit": "fold"}, {"measurement": "AUEC ratio mdr1a/b (−/−)/mdr1a/b (+/+)", "setting": "[6]", "value": "1.14 ± 1.08 and 1.17 ± 0.17"}, {"measurement": "Maximum %MPE reached", "setting": "[6]", "value": 100, "unit": "%"}, {"measurement": "Influence of P-gp ablation on antinociceptive activity", "setting": "[6]", "value": "no significant influence"}, {"measurement": "Potency relative to morphine (times as potent)", "setting": "[7]", "value": "~ 10 times"}]}
{"smiles": "COc1ccc2c3c1O[C@H]1[C@@H](O)C=C[C@H]4[C@@H](C2)N(C)CC[C@@]341", "note": "[Codeine]", "values": [{"measurement": "Fold stimulation of basal P-gp-ATPase activity", "setting": "[1]; human", "value": "1.36 ± 0.07 ^b fold"}, {"measurement": "Rate of ATP consumption versus non-treated control (significance)", "setting": "[1]; human", "value": "significantly different (p < 0.05)"}]}
{"smiles": "COc1ccc2c3c1O[C@H]1CC=C[C@H]4[C@@H](C2)N(C)CC[C@]314", "note": "[6-Desoxycodeine]", "values": [{"measurement": "P-gp affinity status from P-gp ATPase assay", "setting": "[1]", "value": "not to be P-gp substrates"}, {"measurement": "Fold stimulation of basal P-gp-ATPase activity", "setting": "[1]; human", "value": "1.31 ± 0.15", "unit": "fold"}]}
{"smiles": "CCOC(=O)C1(c2ccccc2)CCN(C)CC1", "note": "[Meperidine]", "values": [{"measurement": "Fold stimulation of basal P-gp-ATPase activity", "setting": "[8]", "value": "1.51 ± 0.29", "unit": "fold"}, {"measurement": "AUEC ratio mdr1a/b (−/−)/mdr1a/b (+/+)", "setting": "[6]", "value": "1.14 ± 0.2"}, {"measurement": "mdr1a/b (+/+) (AUEC)", "setting": "[6]", "value": "6752.14 ± 917.94", "unit": "%MPE × min"}, {"measurement": "mdr1a/b (−/−) (AUEC)", "setting": "[6]", "value": "7678.40 ± 851.59", "unit": "%MPE × min"}, {"measurement": "Influence of P-gp ablation on antinociceptive activity", "setting": "[6]", "value": "no significant influence"}, {"measurement": "Intravenous to intraventricular ED10 ratio", "setting": "[9]", "value": 8.5}]}
